Consider twelve molecules from US11458123B2 (Arvinas, Inc., priority 2016, dated 2022).

The structures appear in SMILES notation.

This assay concerns tau protein. Description: Tau protein in vitro degradation assay (Western blot, Tau-13 antibody). Format: cell-based, human. The note with it: SK-N-SH cells, 72 hours of incubation; for Activity* (highest amount of degradation observed at any dosage, as tau protein remaining): tested at 1000 nM, 300 nM and 100 nM. In a few lines:
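SK-N-SH cells, seeded ≥18 h beforehand, were incubated 72 h with tau PROTACs at 1000, 300 and 100 nM or at 300, 100, 33 and 11 nM. Lysates in protease-inhibitor buffer were resolved by SDS-PAGE; tau quantified by Western blot with Tau-13 antibody recognising all human tau forms.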
In general terms: In western blotting, separated proteins are transferred to a membrane and probed.

The mark [1] stands for this setting: tested at 300 nM, 100 nM, 33 nM and 11 nM, Western blot, Tau-13 antibody.

As to `Cn1c2ccncc2c2ccc(-c3ccc(O[C@H]4C[C@H](Oc5cccc(OCCCCCCOc6ccc7c(c6)C(=O)N(C6CCC(=O)NC6=O)C7=O)c5)C4)nc3)cc21` (stereo partly drawn) [Compound 84, 2-(2,6-dioxopiperidin-3-yl)-5-((6-(3-((1r,3r)-3-((5-(5-methyl-5H-pyrido[4,3-b]indol-7-yl)pyridin-2-yl)oxy)cyclobutoxy)phenoxy)hexyl)oxy)isoindoline-1,3-dione], the “Degradation activity* (highest amount of degradation observed at any dosage; tau protein remaining)” value under setting [1] is on record as “C (>80% tau protein remaining after 72 hours of incubation with the test compound)”.

On to `Cc1ncsc1-c1ccc(CNC(=O)[C@@H]2C[C@@H](O)CN2C(=O)[C@@H](NC(=O)COCCOCCOc2ccc(-c3ccc4c(c3)[nH]c3ccncc34)cn2)C(C)(C)C)cc1` [Compound 5, (2S,4R)-1-((S)-2-(2-(2-(2-(5-(5H-pyrido[4,3-b]indol-7-yl)pyridin-2-yloxy)ethoxy)ethoxy)acetamido)-3,3-dimethylbutanoyl)-4-hydroxy-N-(4-(4-methylthiazol-5-yl)benzyl)pyrrolidine-2-carboxamide], for which the “Activity* (highest amount of degradation observed at any dosage, as tau protein remaining)” value is listed as “C (>80% tau protein remaining after 72 hours of incubation with the test compound)”.

`Cn1c2ccncc2c2ccc(-c3ccc(OCCCOc4ccc(CCCOC5CN(c6ccc7c(c6)C(=O)N(C6CCC(=O)NC6=O)C7=O)C5)nc4)nc3)cc21` (stereo not drawn) [Compound 168, 2-(2,6-dioxopiperidin-3-yl)-5-(3-(3-(5-(3-((5-(5-methyl-5H-pyrido[4,3-b]indol-7-yl)pyridin-2-yl)oxy)propoxy)pyridin-2-yl)propoxy)azetidin-1-yl)isoindoline-1,3-dione]: the “Degradation activity* (highest amount of degradation observed at any dosage; tau protein remaining)” value under setting [1] is “B (≤80% and >50% tau protein remaining after 72 hours of incubation with the test compound)”.

As to `Cn1c2ccncc2c2ccc(-c3cnc(O[C@H]4C[C@H](OCCCOCCCN5CC(Oc6ccc7c(c6)C(=O)N(C6CCC(=O)NC6=O)C7=O)C5)C4)c(C(F)(F)F)c3)cc21` (stereo partly drawn) [Compound 105, 2-(2,6-dioxopiperidin-3-yl)-5-((1-(3-(3-((1r,3r)-3-((5-(5-methyl-5H-pyrido[4,3-b]indol-7-yl)-3-(trifluoromethyl)pyridin-2-yl)oxy)cyclobutoxy)propoxy)propyl)azetidin-3-yl)oxy)isoindoline-1,3-dione], the “Degradation activity* (highest amount of degradation observed at any dosage; tau protein remaining)” value under setting [1] was “A (≤50% tau protein remaining after 72 hours of incubation with the test compound)”.

`Cc1ncsc1-c1ccc([C@H](C)NC(=O)[C@@H]2C[C@@H](O)CN2C(=O)[C@@H](NC(=O)COCCCCCOc2ccc3nc(-c4ccc(N(C)C)cc4)ccc3c2)C(C)(C)C)cc1` [Compound 38, (2S,4R)-1-((S)-2-(2-(5-(2-(4-(dimethylamino)phenyl)quinolin-6-yloxy)pentyloxy)acetamido)-3,3-dimethylbutanoyl)-4-hydroxy-N—((S)-1-(4-(4-methylthiazol-5-yl)phenyl)ethyl)pyrrolidine-2-carboxamide]: the “Activity* (highest amount of degradation observed at any dosage, as tau protein remaining)” value was “C (>80% tau protein remaining after 72 hours of incubation with the test compound)”.

On to `Cc1ncsc1-c1ccc([C@H](C)NC(=O)[C@@H]2C[C@@H](O)CN2C(=O)[C@@H](NC(=O)COCCOCCOCCOCCN2CCN(c3ccn4c(n3)nc3ccccc34)CC2)C(C)(C)C)cc1` [Compound 16, (2S,4R)-1-((S)-17-(4-(benzo[4,5]imidazo[1,2-a]pyrimidin-2-yl)piperazin-1-yl)-2-(tert-butyl)-4-oxo-6,9,12,15-tetraoxa-3-azaheptadecanoyl)-4-hydroxy-N—((S)-1-(4-(4-methylthiazol-5-yl)phenyl)ethyl)pyrrolidine-2-carboxamide], for which the “Activity* (highest amount of degradation observed at any dosage, as tau protein remaining)” value is given as “C (>80% tau protein remaining after 72 hours of incubation with the test compound)”.

On to `Cn1c2ccncc2c2c(F)c(F)c(-c3ccc(OCCOCCOCCOCCOCCOc4ccc5c(c4)C(=O)N(C4CCC(=O)NC4=O)C5=O)nc3)cc21` (stereo not drawn) [Compound 112, 5-((14-((5-(8,9-difluoro-5-methyl-5H-pyrido[4,3-b]indol-7-yl)pyridin-2-yl)oxy)-3,6,9,12-tetraoxatetradecyl)oxy)-2-(2,6-dioxopiperidin-3-yl)isoindoline-1,3-dione], for which the “Degradation activity* (highest amount of degradation observed at any dosage; tau protein remaining)” value under setting [1] is “A (≤50% tau protein remaining after 72 hours of incubation with the test compound)”.

`Cc1ncsc1-c1ccc([C@H](C)NC(=O)[C@@H]2C[C@@H](O)CN2C(=O)[C@@H](NC(=O)COCCOCCOCCOc2ccc3nc(-c4ccc(N(C)C)cc4)ccc3c2)C(C)(C)C)cc1` [Compound 30, (2S,4R)-1-((S)-2-tert-butyl-14-(2-(4-(dimethylamino)phenyl)quinolin-6-yloxy)-4-oxo-6,9,12-trioxa-3-azatetradecane)-4-hydroxy-N—((S)-1-(4-(4-methylthiazol-5-yl)phenyl)ethyl)pyrrolidine-2-carboxamide]: the “Activity* (highest amount of degradation observed at any dosage, as tau protein remaining)” value is “C (>80% tau protein remaining after 72 hours of incubation with the test compound)”.

As for `Cn1c2ccncc2c2ccc(-c3cnc(O[C@H]4C[C@H](OC5CCN(CCCCCOc6ccc7c(c6)C(=O)N(C6CCC(=O)NC6=O)C7=O)CC5)C4)c(C(F)(F)F)c3)cc21` (stereo partly drawn) [Compound 123, 2-(2,6-dioxopiperidin-3-yl)-5-((5-(4-((1r,3r)-3-((5-(5-methyl-5H-pyrido[4,3-b]indol-7-yl)-3-(trifluoromethyl)pyridin-2-yl)oxy)cyclobutoxy)piperidin-1-yl)pentyl)oxy)isoindoline-1,3-dione], under setting [1], the “Degradation activity* (highest amount of degradation observed at any dosage; tau protein remaining)” value is reported as “C (>80% tau protein remaining after 72 hours of incubation with the test compound)”.

For `O=C1CCC(N2C(=O)c3ccc(N4CC(OCC#Cc5ccc(O[C@H]6C[C@H](Oc7ccc(-c8ccc9c(c8)[nH]c8ccncc89)cn7)C6)cn5)C4)cc3C2=O)C(=O)N1` (stereo partly drawn) [Compound 194, 5-(3-((3-(5-((1r,3r)-3-((5-(5H-pyrido[4,3-b]indol-7-yl)pyridin-2-yl)oxy)cyclobutoxy)pyridin-2-yl)prop-2-yn-1-yl)oxy)azetidin-1-yl)-2-(2,6-dioxopiperidin-3-yl)isoindoline-1,3-dione], the “Degradation activity (tau protein remaining; highest amount of degradation observed at any dosage)” value under setting [1] was “C (>80% tau protein remaining after 72 hours of incubation with the test compound)”.

Consider `Cn1c2ccncc2c2ccc(-c3cnc(CCCN4CCN(CCCCCOc5ccc6c(c5)C(=O)N(C5CCC(=O)NC5=O)C6=O)CC4)c(C(F)(F)F)c3)cc21` (stereo not drawn) [Compound 63, 2-(2,6-dioxopiperidin-3-yl)-5-((5-(4-(3-(5-(5-methyl-5H-pyrido[4,3-b]indol-7-yl)-3-(trifluoromethyl)pyridin-2-yl)propyl)piperazin-1-yl)pentyl)oxy)isoindoline-1,3-dione], for which the “Degradation activity* (highest amount of degradation observed at any dosage; tau protein remaining)” value under setting [1] is on record as “C (>80% tau protein remaining after 72 hours of incubation with the test compound)”.

On to `Cn1c2ccncc2c2ccc(-c3ccc(OCCCCCOCCCCCOC4CN(c5ccc6c(c5)C(=O)N(C5CCC(=O)NC5=O)C6=O)C4)nc3)cc21` (stereo not drawn) [Compound 79, 2-(2,6-dioxopiperidin-3-yl)-5-(3-((5-((5-((5-(5-methyl-5H-pyrido[4,3-b]indol-7-yl)pyridin-2-yl)oxy)pentyl)oxy)pentyl)oxy)azetidin-1-yl)isoindoline-1,3-dione], for which the “Degradation activity* (highest amount of degradation observed at any dosage; tau protein remaining)” value under setting [1] is “A (≤50% tau protein remaining after 72 hours of incubation with the test compound)”.
